# From patent publication US20030073654A1, “Stabilized transient gene expression” (Genespan Corporation, priority 1996, published 2003)
# Entries after “also recorded” stand apart in the source; their conditions may differ.
# Tests used:
# [1] = system: SW480 cells; assay: Transient expression in HPBr hollow fiber perfusion bioreactor (2-week β-galactosidase production); type: cell-based, human; details: relatively high rotational speed
# Experimental: A series of four lipofection-based gene transfection experiments were conductive in a high performance hollow fiber perfusion prototype bioreactor device (hereafter referred to as the […] device) in a Genespan prototype incubator instrument. The device consists essentially of a sterile chamber through which two sets of hollow fibers are passed. Culture medium is continuously circulated through one set of fibers, while gases required (e.g., oxygen and carbon dioxide) for cell growth are passed through the second set of fibers. The fibers are composed of a porous material through which gases and nutrients can pass in one direction, while waste molecules produced by the cells growing within the chamber can pass in the other direction. Cells growing in the device may remain in suspension, or may attach to the outer surfaces of both sets of hollow fibers.
# A useful feature of the HPBr device is that the cells can be agitated by rotating the chamber through which the tubes pass. […]
# Daily samples (about 1.5 ml) of cells and supernatant were taken from the cell compartment of each bioreactor and an equal volume of fresh media was added to replace it. Cell counts and viabilities were determined, and […] were lysed and retained for β-galactosidase determination using the spectrophotometric method described in Example 1. […]
# [2] = system: SW480 P3 (ATCC #CCL228) human colon carcinoma cells; assay: Screening assay for enhancement of transient expression (β-galactosidase gene, liposomal transfection, 6-well plates); type: cell-based
# Excerpt: These parameters are called the “X” factor, the “G” factor, and the “K” factor. [formula]
# This factor reflects the extent to which a chemical compound added to a transfected cell enhances stabilizes transient expression for the first four days following transfection. […] For example, if expression is doubled in the presence of a compound, […]. […] X may be calculated similarly when the agent in question is a mixture of more than one chemical compound.
# Cumulative protein expression, i.e., the values for “A” and “C”, is measured by summing the values measured daily in aliquots of the cultured cells.
# 2. G factors. G factors differ from the X factor only with respect to the time period evaluated. For calculating a G factor, the amount of protein expressed is measured from days 4-7 or days 4-14, where day 0 is the day on which the foreign DNA is added to the cells. The subscripts denote which of the two time periods provided the basis for measurement. […] As for the X factor, [formula]
# 3. K factor. The K factor is the ratio of the rate constants for the change in the foreign DNA expression in control transfected cells and in cells exposed to a chemical compound of the subject invention. K is determined according to the following equation: [formula]
# wherein “k(DNA)” is the first order rate constant for the change in concentration of the protein expressed from the transgenic DNA, which is expressing protein as a function of time, i.e., [formula]
# Values for k(DNA) are derived by using a computer program that plots the log of the foreign protein concentration against time, using the results of transgenic protein measurements that begin about 24 hours after the foreign DNA has been added to the cell. […] However, the program calculates a “best fit” line for each data set, and determines the slope of that portion of the resulting line that corresponds to the period during which protein production is changing. […] Thus, the slope is calculated during this period of decline to provide values for k(DNA) and K that can be compared for the purpose of comparing the efficacy of different chemical compounds.
# SW480 P3 (ATCC #CCL228) human colon carcinoma cells (typically, 1×10^6 cells) were plated in the wells of a 6-well tissue culture plate. The number of wells plated reflected the number of days post-transfection during which the experiment would proceed. Each well contained 1 ml of complete media from a 30 ml stock solution containing: 26.4 ml RPMI tissue culture medium, 4 mM L-glutamine, 3.0 ml fetal bovine serum, and 10 μg/ml gentamicin. Cells were cultured at 37° C. in a CO2 incubator with 10% CO2 for 24 hours after being plated, during which time the cells adhered to the plates.
# After the 24 hour pre-incubation step, the transfection step was carried out by removing the RPMI and adding 900 μL OPTI-MEM® (Gibco) medium containing 2 μg of VR1412 DNA (Vical, Inc., San Diego, Calif.), which expresses the bacterial β-galactosidase gene under the control of a cytomegalovirus promoter, and 8 μg of a mixture of cationic lipid (1,2-dimyristyloxyproply-3-dimethyl-hydroxyethyl ammonium bromide (e.g., “DMRIE/DOPE”) mixed in equimolar proportions with dioleoylphosphatidylethanolamine) to yield a lipid:DNA molar ratio of 0.99:1. It should be noted that typical transient transfection protocols employ 10 μg DNA per 10^6 cells, but the protocol described here uses less DNA in order to reduce toxicity to the cells. The plates were then incubated for 4 hours at 37° C.
# After the 4 hour incubation step, 100 μl of heat deactivated fetal bovine serum (to stop transfection), plus 12.0 μl of 50 mg/ml gentamicin were added to each well.
substance,measurement,setting,value
chondroitin sulfate,cell adhesion to microcarrier,[1],enabled the anchorage-dependent cells to adhere well to the microcarrier
same,effect on transient expression,[2],capable of prolonging transient expression
same,effect on transient expression when present before or during the transfection step,"[2]; polyanionic carbohydrates, liposomal transfection",allowed the transfection to proceed unimpeded; also recorded: enhanced transient expression
